According to patent US20120165319A1, “INHIBITORS OF INTERLEUKIN-1 BETA CONVERTING ENZYME” (VERTEX PHARMACEUTICALS INCORPORATED, priority 1995, published 2012):

Columns and labels:
ICE = molecular target: T1, ICE (Homo sapiens, UniProt P29466); test: Enzyme assay with fluorescent substrate (Acetyl-Tyr-Val-Ala-Asp-AMC); Ki and second order rate constants kinact; format: biochemical; details: YVAD-AMC substrate; reversible inhibitors (Table 1)
T1 sequence (P29466 120-297 limits assumed): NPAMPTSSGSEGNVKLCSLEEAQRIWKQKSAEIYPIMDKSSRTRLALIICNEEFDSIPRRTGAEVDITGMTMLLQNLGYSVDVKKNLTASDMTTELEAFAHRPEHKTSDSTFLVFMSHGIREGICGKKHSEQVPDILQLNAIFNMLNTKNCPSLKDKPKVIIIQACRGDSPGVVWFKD
T1 sequence (P29466 317-404 limits assumed): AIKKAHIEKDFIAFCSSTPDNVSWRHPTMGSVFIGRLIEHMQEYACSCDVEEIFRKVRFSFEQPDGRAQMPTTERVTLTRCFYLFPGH
Description: 2. Enzyme Assay with Fluorescent Substrate
This assay is run essentially according to Thornberry et al. (Nature 356: 768-774 (1992)), using substrate 17 referenced in that article. The substrate is: Acetyl-Tyr-Val-Ala-Asp-amino-4-methylcoumarin (AMC). The following components are mixed:
The assay is run in a 96 well microtiter plate. Buffer and ICE are added to the wells. The components are left to incubate at 37° C. for 15 minutes in a temperature-controlled wellplate. After the 15 minute incubation, the reaction is started by adding substrate directly to the wells and the reaction is monitored @37° C. for 30 minutes by following the release of the AMC fluorophore using an excitation wavelength for 380 nm and an emission wavelength of 460 nm. A linear fit of the data for each well is performed and a rate is determined in fluorescence units per second.
For determination of enzyme inhibition constants (Ki) or the mode of inhibition (competitive, uncompetitive or noncompetitive), the rate data determined in the enzyme assays at varying inhibitor concentrations are computer-fit to standard enzyme kinetic equations (see I. H. Segel, Enzyme Kinetics, Wiley-Interscience, 1975).
The determination of second order rate constants for irreversible inhibitors was performed by fitting the fluorescence vs time data to the progress equations of Morrison. Morrison, J. F., Mol. Cell. Biophys., 2, pp. 347-368 (1985). Thornberry et al. have published a description of these methods for measurement of rate constants of irreversible inhibitors of ICE. Thornberry, N. A., et al. Biochemistry, 33, pp. 3923-3940 (1994). For compounds where no prior complex formation can be observed kinetically, the second order rate constants (kinact) are derived directly from the slope of the linear plots of kobs vs. [I]. For compounds where prior complex formation to the enzyme can be detected, the hyperbolic plots of kobs vs. [I] are fit to the equation for saturation kinetics to first generate Ki and k′. The second order rate constant kinact is then given by k′/Ki.
(§1) The selectivity of a panel of reversible inhibitors for ICE homologs is depicted in Table 1. ICE enzyme assays were performed according to Wilson et al (supra 1994) using a YVAD-AMC substrate (Thornberry et al, supra 1992). Assay of TX activity was performed using the ICE substrate under identical conditions to ICE. Assay of CPP32 was performed using a DEVD-AMC substrate (Nicholson et al., supra 1995). In general, there is low selectivity between ICE and TX for a wide range of scaffolds. None of the synthetic ICE compounds tested are effective inhibitors of CPP32.
(§2) Second-order rate constants for inactivation of ICE and ICE homologs with selected irreversible inhibitors are presented below (Table 2). The irreversible compounds studied are broad spectrum inhibitors of ICE and its homologs. Some selectivity, however, is observed with the irreversible compounds comparing inhibition of ICE and CPP32.

TX = molecular target: T2, TX (Homo sapiens, UniProt P49662); test: Inhibition of ICE homologs: TX; format: biochemical; details: ICE substrate, conditions identical to ICE (Table 1)
T2 construct: made in house; host or cells: Spodoptera frugiperda (Sf9) insect cells, recombinant baculovirus (pVL1393/TX)
T2 sequence (P49662 81-270 limits assumed): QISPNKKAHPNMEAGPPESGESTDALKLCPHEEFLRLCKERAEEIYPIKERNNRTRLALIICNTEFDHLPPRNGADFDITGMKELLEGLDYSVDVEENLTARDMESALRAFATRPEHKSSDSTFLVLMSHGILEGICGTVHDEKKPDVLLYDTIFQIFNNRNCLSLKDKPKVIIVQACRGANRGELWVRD
T2 sequence (P49662 290-377 limits assumed): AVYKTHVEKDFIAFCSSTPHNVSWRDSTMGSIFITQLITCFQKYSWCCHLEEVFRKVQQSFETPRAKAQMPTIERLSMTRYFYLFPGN
Excerpt: Expression of TX in insect cells using a baculovirus expression system. We have subcloned Tx cDNA (Faucheu et al., supra 1995) into a modified pVL1393 transfer vector, co-transfected the resultant plasmid (pVL1393/TX) into insect cells with viral DNA and identified the recombinant baculovirus. After the generation of high titer recombinant virus stock, the medium was examined for TX activity using the visible ICE assay. […] ICE was used as a standard in the assay.
as §1, §2

[1] = Measurement of blood levels of prodrugs of 214e after p.o. dosing in mice; format: in vivo, mouse
Description: Measurement of Blood Levels of Prodrugs of 214e
Mice were administered a p.o. dose of compounds 302 and 304a (50 mg/kg) prepared in 0.5% carboxymethylcellulose. Blood samples were collected at 1 and 7 hours after dosing. Serum was extracted by precipitation with an equal volume of acetonitrile containing 2% formic acid followed by centrifugation. The supernatant was analyzed by liquid chromatography-mass spectrometry (ESI-MS) with a detection level of 0.03 to 3 μg/ml.

U937 cells = test: Fas-induced apoptosis in U937 cells; details: anti-Fas-induced apoptosis, U937 cells, 20 μM
Description: Fas-Induced Apoptosis in U937 cells. Compounds were evaluated for their ability to block anti-Fas-induced apopotosis. […] We used this cell line for apoptosis studies. U937 cells were seeded in culture at 1×10^5 cells/ml and grown to ˜5×10^6 cells/ml. For apoptosis experiments, 2×10^6 cells were plated in 24-well tissue culture plates in 1 ml RPMI-1640-10% FBS and stimulated with 100 ng/ml anti-Fas antigen antibody (Medical and Biological Laboratories, Ltd.). After a 24 hr incubation at 37° C., the percentage of apoptotic cells was determined by FACS analysis using ApoTag reagents.

CPP32 = molecular target: T3, CPP32 (Homo sapiens, UniProt P42574); test: Inhibition of ICE homologs: CPP32 (DEVD-AMC substrate)
T3 sequence (P42574 29-175 limits assumed): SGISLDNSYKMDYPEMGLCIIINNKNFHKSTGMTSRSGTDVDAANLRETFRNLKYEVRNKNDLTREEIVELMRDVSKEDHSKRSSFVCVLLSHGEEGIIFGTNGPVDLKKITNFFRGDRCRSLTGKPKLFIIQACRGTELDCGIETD
T3 sequence (P42574 176-277 limits assumed): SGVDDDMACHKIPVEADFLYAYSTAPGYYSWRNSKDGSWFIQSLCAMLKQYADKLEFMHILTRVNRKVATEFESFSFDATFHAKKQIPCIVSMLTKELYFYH

O=C[C@H](CC(=O)O)NC(=O)[C@@H]1CCCN2C(=O)CC[C@H](NC(=O)c3ccccc3)C(=O)N12 [Compound 214e, [3S(1S,9S)]3-(9-Benzoylamino-6,10-dioxo-1,2,3,4,7,8,9,10-octahydro-6H-pyridazino[1,2-a][1,2]-diazepine-1-carboxamido)-4-oxobutanoic acid]
Ki (ICE): 7.5 nM | Ki (TX): 7 ± 1.1 nM | blood levels when administered orally ([1]; orally, detection level 0.03 to 3 μg/ml): ≤ 100 ng/mL | Inhibition of apoptosis (U937 cells): no inhibition | Ki (CPP32): > 1000 nM

CC(C)(C)OC(=O)C[C@@H](C=O)NC(=O)[C@@H]1CCCN2C(=O)CC[C@H](NC(=O)c3ccccc3)C(=O)N12 [Compound 302, [3S(1S,9S)3-(9-Benzoylamino-6,10-dioxo-1,2,3,4,7,8,9,10-octahydro-6H-pyriazino-[1,2-a][1,2]diazapine-1-carboxamido)-amino]-4-oxobutanoic acid tert-butyl ester]
blood levels when administered orally (in words) ([1]; p.o. 50 mg/kg in 0.5% carboxymethylcellulose, blood at 1 and 7 hours): detectable blood levels
